Experimental data taken from patent US5541183A, “Ginkgolide derivatives” (priority 1993, dated 1996).

Test system: PAF-induced rabbit platelet aggregation
Assay: PAF-induced rabbit platelet aggregation
Format: cell-based, rabbit (New Zealand white)
Conditions: Oryctolagus cuniculus, rabbit PRP, PAF 5×10^-9 M, read-out: IC50, inhibition of PAF-induced rabbit platelet aggregation
Experimental: Pharmacology Example 1: PAF-induced rabbit platelet aggregation
Blood was collected from the ear artery of a male New Zealand white rabbit and mixed with 3.8% sodium citrate in a 9:1 volume ratio. Platelet rich plasma (PRP) was obtained by centrifugation of the blood at 150 g for 10 min at room temperature. The number of platelets was adjusted to 3×10^8 platelets/ml with platelet poor plasma. Platelet aggregation was monitored by continuous recording of light transmission in a dual-channel aggregometer (Chrono-Log 560-VS) coupled with a two channel recorder (Chrono-Log 707). Stirred PRP was treated with various concentrations of the test compounds or vehicle (0.5% DMSO) for 2 min and then PAF(5×10^-9 M) was added to induce platelet aggregation.
Inhibition values were calculated by comparing the extent of aggregation obtained in the presence of the vehicle alone (0.5% DMSO) and in the presence of a test compound. Log concentration-response curves were generated and the IC50 values were determined by regression analysis.
Table 1 lists results from this assay for inhibition of PAF-induced rabbit platelet aggregation for illustrative examples of the compounds of this invention.

| SMILES | IC50 |
| --- | --- |
| CC1C(=O)OC2C(O)C34C5CC(C(C)(C)C)C36C(OC(=O)C6OCc3ccccc3)OC4(C(=O)O5)C12O (stereo not drawn) [Example 1, 10-benzyloxy-Ginkgolide B] | 68.8 nM |
| CC1C(=O)OC2C(O)C34C5CC(C(C)(C)C)C36C(OC(=O)C6OCc3ccc(Cl)cc3Cl)OC4(C(=O)O5)C12O (stereo not drawn) [Example 2, 10-(2',4'-dichlorobenzyloxy)-Ginkgolide B] | 72.1 nM |
| CC1C(=O)OC2C(O)C34C5CC(C(C)(C)C)C36C(OC(=O)C6OCc3ccc(Cl)cc3)OC4(C(=O)O5)C12O (stereo not drawn) [Example 3, 10-(4'-chlorobenzyloxy)-Ginkgolide B] | 94.7 nM |
| CC1C(=O)OC2C(O)C34C5CC(C(C)(C)C)C36C(OC(=O)C6OCc3ccc(Cl)c(Cl)c3)OC4(C(=O)O5)C12O (stereo not drawn) [Example 11] | 101 nM |
| COc1ccc(COC2C(=O)OC3OC45C(=O)OC6CC(C(C)(C)C)C32C64C(O)C2OC(=O)C(C)C25O)cc1 (stereo not drawn) [Example 14, 10-(4'-methoxybenzyloxy)-Ginkgolide B] | 85.8 nM |
| COc1cc(COC2C(=O)OC3OC45C(=O)OC6CC(C(C)(C)C)C32C64C(O)C2OC(=O)C(C)C25O)cc(OC)c1OC (stereo not drawn) [Example 15, 10-(3',4',5'-trimethoxybenzyloxy)-Ginkgolide B] | 62.1 nM |
| CC1C(=O)OC2C(O)C34C5CC(C(C)(C)C)C36C(OC(=O)C6OCc3ccc(O)cc3)OC4(C(=O)O5)C12O (stereo not drawn) [Example 25] | 57.1 nM |
| Cc1cc(COC2C(=O)OC3OC45C(=O)OC6CC(C(C)(C)C)C32C64C(O)C2OC(=O)C(C)C25O)cc(C)c1O (stereo not drawn) [Example 27] | 62.1 nM |
| COc1cc(COC2C(=O)OC3OC45C(=O)OC6CC(C(C)(C)C)C32C64C(O)C2OC(=O)C(C)C25O)ccc1O (stereo not drawn) [Example 28] | 37.1 nM |
| CC1C(=O)OC2C(O)C34C5CC(C(C)(C)C)C36C(OC(=O)C6OCc3cc(C(C)(C)C)c(O)c(C(C)(C)C)c3)OC4(C(=O)O5)C12O (stereo not drawn) [Example 31] | 78.1 nM |
| COc1cc(COC2C(=O)OC3OC45C(=O)OC6CC(C(C)(C)C)C32C64C(O)C2OC(=O)C(C)C25O)cc(OC)c1O (stereo not drawn) [Example 32] | 65.1 nM |
| Cc1cc(COC2C(=O)OC3OC45C(=O)OC6CC(C(C)(C)C)C32C64C(O)C2OC(=O)C(C)C25O)cc(N)c1O (stereo not drawn) [Example 35] | 101 nM |
| Cc1ccccc1COC1C(=O)OC2OC34C(=O)OC5CC(C(C)(C)C)C21C53C(O)C1OC(=O)C(C)C14O (stereo not drawn) [Example 41, 10-(2'-methylbenzyloxy)-Ginkgolide B] | 74.1 nM |
| Cc1ccccc1COC1C(=O)OC2OC34C(=O)OC5CC(C(C)(C)C)C21C53C(OCc1ccccc1C)C1OC(=O)C(C)C14O (stereo not drawn) [Example 42, 1,10-bis(2'-methylbenzyloxy)-Ginkgolide B] | 44.3 nM |
| Cc1ccc(COC2C(=O)OC3OC45C(=O)OC6CC(C(C)(C)C)C32C64C(O)C2OC(=O)C(C)C25O)cc1 (stereo not drawn) [Example 43, 10-(4'-methylbenzyloxy)-Ginkgolide B] | 46.7 nM |
| CC1C(=O)OC2C(O)C34C5CC(C(C)(C)C)C36C(OC(=O)C6OCCCOc3ccccc3)OC4(C(=O)O5)C12O (stereo not drawn) [Example 78, 10-(3'-phenoxypropoxy)-Ginkgolide B] | 159 nM |
| CC1C(=O)OC2C(O)C34C5CC(C(C)(C)C)C36C(OC(=O)C6OCCc3ccccc3)OC4(C(=O)O5)C12O (stereo not drawn) [Example 79, 10-(2'-phenylethoxy)-Ginkgolide B] | 117 nM |

| SMILES | IC50 |
| --- | --- |
| COc1cc(C(=O)OC2C(=O)OC3OC45C(=O)OC6CC(C(C)(C)C)C32C64C(O)C2OC(=O)C(C)C25O)cc(OC)c1OC (stereo not drawn) [Example 80, 10-(3',4'.5'-trimethoxybenzoyloxy)-Ginkgolide B] | 114 nM |
| CC1C(=O)OC2C(O)C34C5CC(C(C)(C)C)C36C(OC(=O)C6OCc3ccc(-c6ccccc6)cc3)OC4(C(=O)O5)C12O (stereo not drawn) [Example 81, 10-(4'-phenylbenzyloxy)-Ginkgolide B] | 52.1 nM |
| CC1C(=O)OC2C(O)C34C5CC(C(C)(C)C)C36C(OC(=O)C6OCc3cccc(F)c3)OC4(C(=O)O5)C12O (stereo not drawn) [Example 84, 10-(3'-fluorobenzyloxy)-Ginkgolide B] | 68 nM |
| CC1C(=O)OC2C(O)C34C5CC(C(C)(C)C)C36C(OC(=O)C6OCc3ccc(F)cc3)OC4(C(=O)O5)C12O (stereo not drawn) [Example 85, 10-(4'-fluorobenzyloxy)-Ginkgolide B] | 32.1 nM |
| CC1C(=O)OC2C(OC(=O)c3ccccc3)C34C5CC(C(C)(C)C)C36C(OC(=O)C6O)OC4(C(=O)O5)C12O (stereo not drawn) [Example 89, 1-benzoyloxy-Ginkgolide B] | 62.1 nM |
| CC1C(=O)OC2C(O)C34C5CC(C(C)(C)C)C36C(OC(=O)C6OS(=O)(=O)c3ccccc3)OC4(C(=O)O5)C12O (stereo not drawn) [Example 90, 10-benzenesulfonyloxy-Ginkgolide B] | 82.1 nM |
| COc1cccc(COC2C(=O)OC3OC45C(=O)OC6CC(C(C)(C)C)C32C64C(O)C2OC(=O)C(C)C25O)c1 (stereo not drawn) [Example 91, 10-(3'-methoxybenzyloxy)-Ginkgolide B] | 93.1 nM |
| CC1C(=O)OC2C(OCc3ccc(Cl)cc3Cl)C34C5CC(C(C)(C)C)C36C(OC(=O)C6OCc3ccc(Cl)cc3Cl)OC4(C(=O)O5)C12O (stereo not drawn) [Example 92, 1,10-bis(2',4'-dichlorobenzyloxy)-Ginkgolide B] | 102 nM |
| CC1C(=O)OC2C(O)C34C5CC(C(C)(C)C)C36C(OC(=O)C6OCc3cccc(C(F)(F)F)c3)OC4(C(=O)O5)C12O (stereo not drawn) [Example 93, 10-(3'-trifiuoromethylbenzyloxy)-Ginkgolide B] | 73.1 nM |
| CC1C(=O)OC2C(O)C34C5CC(C(C)(C)C)C36C(OC(=O)C6OCc3ccc(C(F)(F)F)cc3)OC4(C(=O)O5)C12O (stereo not drawn) [Example 94, 10-(4'-trifluoromethylbenzyloxy)-Ginkgolide B] | 121 nM |
| CC1C(=O)OC2C(OCc3ccc(C(F)(F)F)cc3)C34C5CC(C(C)(C)C)C36C(OC(=O)C6OCc3ccc(C(F)(F)F)cc3)OC4(C(=O)O5)C12O (stereo not drawn) [Example 95] | 87.1 nM |
| Cc1cnc(COC2C(=O)OC3OC45C(=O)OC6CC(C(C)(C)C)C32C64C(O)C2OC(=O)C(C)C25O)c(C)c1[N+](=O)[O-] (stereo not drawn) [Example 98, 10-(3,5-dimethyl-4-nitro-2-pyridinyl)-methoxy-Ginkgolide B] | 131 nM |
| CCCCc1ccc(COC2C(=O)OC3OC45C(=O)OC6CC(C(C)(C)C)C32C64C(O)C2OC(=O)C(C)C25O)nc1 (stereo not drawn) [Example 100, 10-(5-butyl-2-pyridinyl)-methoxy-Ginkgolide B] | 52.1 nM |
| CC1C(=O)OC2C(O)C34C5CC(C(C)(C)C)C36C(OC(=O)C6OCc3ccc6ccccc6n3)OC4(C(=O)O5)C12O (stereo not drawn) [Example 102, 10-(2-quinolinyl)-methoxy-Ginkgolide B] | 131 nM |
| Cc1cnc(COC2C(=O)OC3OC45C(=O)OC6CC(C(C)(C)C)C32C64C(O)C2OC(=O)C(C)C25O)c(C)c1NO (stereo not drawn) [Example 104, 10-(3,5-dimethyl-4-hydroxyamino-2-pyridinyl)-methoxy-Ginkgolide B] | 110 nM |
| Cc1cnc(COC2C(=O)OC3OC45C(=O)OC6CC(C(C)(C)C)C32C64C(O)C2OC(=O)C(C)C25O)c(C)c1NC(=O)c1ccccc1 (stereo not drawn) [Example 105, 10-(4-benzoylamino-3,5-dimethyl-2-pyridinyl)-methoxy-Ginkgolide B] | 32.5 nM |
| Cc1cnc(COC2C(=O)OC3OC45C(=O)OC6CC(C(C)(C)C)C32C64C(O)C2OC(=O)C(C)C25O)c(C)c1N(O)C(=O)c1ccccc1 (stereo not drawn) [Example 106, 10-(4-N-benzoyl-N-hydroxyamino-3,5-dimethyl-2-pyridinyl)-methoxy Ginkgolide B] | 47.1 nM |

Same assay, conditions: Oryctolagus cuniculus, read-out: IC50, inhibition of PAF-induced rabbit platelet aggregation

| SMILES | IC50 |
| --- | --- |
| CC1C(=O)OC2C(O)C34C5CC(C(C)(C)C)C36C(OC(=O)C6OCc3ccc(I)cc3)OC4(C(=O)O5)C12O (stereo not drawn) [Example 5] | 50.1 nM |
| CC1C(=O)OC2C(O)C34C5CC(C(C)(C)C)C36C(OC(=O)C6OCc3ccc(OC(F)(F)F)cc3)OC4(C(=O)O5)C12O (stereo not drawn) [Example 24] | 42.1 nM |
| CC1C(=O)OC2C(O)C34C5CC(C(C)(C)C)C36C(OC(=O)C6OCc3ccc(O)c(O)c3)OC4(C(=O)O5)C12O (stereo not drawn) [Example 30] | 121 nM |
| CC1C(=O)OC2C(O)C34C5CC(C(C)(C)C)C36C(OC(=O)C6OCc3ccc([N+](=O)[O-])cc3)OC4(C(=O)O5)C12O (stereo not drawn) [Example 44] | 83.1 nM |
| CC1C(=O)OC2C(O)C34C5CC(C(C)(C)C)C36C(OC(=O)C6OCc3cccc([N+](=O)[O-])c3)OC4(C(=O)O5)C12O (stereo not drawn) [Example 63] | 62.7 nM |
| CC1C(=O)OC2C(O)C34C5CC(C(C)(C)C)C36C(OC(=O)C6OCc3ccc(N)cc3)OC4(C(=O)O5)C12O (stereo not drawn) [Example 75] | 116 nM |
| CC1C(=O)OC2C(O)C34C5CC(C(C)(C)C)C36C(OC(=O)C6OCc3c(F)c(F)c(F)c(F)c3F)OC4(C(=O)O5)C12O (stereo not drawn) [Example 83, 10-(2',3',4',5',6'-pentafluorobenzyloxy)-Ginkgolide B] | 71.7 nM |
| CC1C(=O)OC2C(O)C34C5CC(C(C)(C)C)C36C(OC(=O)C6OCc3ccc(F)cc3F)OC4(C(=O)O5)C12O (stereo not drawn) [Example 86, 10-(2',4'-difluorobenzyloxy)-Ginkgolide B] | 50.1 nM |
| CC1C(=O)OC2C(O)C34C5CC(C(C)(C)C)C36C(OC(=O)C6OCc3ccccc3F)OC4(C(=O)O5)C12O (stereo not drawn) [Example 87, 10-(2'-fluorobenzyloxy)-Ginkgolide B] | 107 nM |
| CC1C(=O)OC2C(O)C34C5CC(C(C)(C)C)C36C(OC(=O)C6OC(=O)c3ccccc3)OC4(C(=O)O5)C12O (stereo not drawn) [Example 88, 10-benzoyloxy-Ginkgolide B] | 48.2 nM |
| CC1C(=O)OC2C(O)C34C5CC(C(C)(C)C)C36C(OC(=O)C6OCCc3ccccn3)OC4(C(=O)O5)C12O (stereo not drawn) [Example 101, 10-(2-pyridinyl)-ethoxy-Ginkgolide B] | 102 nM |
